Data from ChEMBL document CHEMBL1201862, “PubChem BioAssay data set” (2004).
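Tested at 5 concentrations; 48 h exposure; 96-well plates; endpoints linearly interpolated, else capped at highest concentration. GI50: concentration for 50% inhibition of growth.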 The source made the active and inactive calls. No stated cut-off is given here; in the data, active = GI50 up to about 1.1 µM and inactive = higher.

Experiments:
Assay in all cases: NCI-60 cell line screen, 48 h
[1] = tested on: T47D
[2] = tested on: RPMI-8226
[3] = tested on: Hs-578T
[4] = tested on: A549
[5] = tested on: U-251
[6] = tested on: NCI-H460
[7] = tested on: SF-268
[8] = tested on: A498
[9] = tested on: MDA-MB-231
[10] = tested on: HCT-116
[11] = tested on: ACHN
[12] = tested on: DU-145
[13] = tested on: MOLT-4
[14] = tested on: OVCAR-8
[15] = tested on: Malme-3M
[16] = tested on: COLO 205
[17] = tested on: HT-29
[18] = tested on: HOP-62
[19] = tested on: K562
[20] = tested on: UACC-62

Measured: GI50

O=[N+]([O-])c1cc(Cc2cc([N+](=O)[O-])c3cccnc3c2O)c(O)c2ncccc12
inactive: [1] 4.48 µM | [2] 4.57 µM | [3] 9.51 µM | [4] 6.56 µM | [5] 3.91 µM | [6] 2.18 µM | [7] 3.52 µM | [8] 14.2 µM | [9] 3.4 µM | [10] 3.35 µM | [11] 5.6 µM | [12] 9.89 µM | [13] 2.12 µM | [14] 3.6 µM | [15] 6.68 µM | [16] 19.7 µM | [17] 10.2 µM | [18] 9.1 µM | [19] 4.16 µM | [20] 9.48 µM

O=c1[nH]c(=O)n(C2OC(CO)C(O)C(O)C2O)cc1F (stereo not given)
inactive: [1] > 100 µM | [2] > 100 µM | [3] > 100 µM | [4] > 100 µM | [5] > 100 µM | [6] > 100 µM | [7] > 100 µM | [8] > 100 µM | [9] > 100 µM | [10] > 100 µM | [11] > 100 µM | [12] > 100 µM | [13] > 100 µM | [14] > 100 µM | [15] > 100 µM | [16] > 100 µM | [17] > 100 µM | [18] > 100 µM | [19] > 100 µM | [20] > 100 µM

O=C(O)CC1NC(/C(=C/c2ccccc2)NC(=O)c2ccccc2)OC1=O (stereo not given)
inactive: [1] > 100 µM | [2] 20.2 µM | [3] 44.8 µM | [4] 84.5 µM | [5] 18.4 µM | [6] 22.2 µM | [7] 36.3 µM | [8] > 100 µM | [9] 27.4 µM | [10] 18.5 µM | [11] > 100 µM | [12] 52.4 µM | [13] 17.7 µM | [14] 25.9 µM | [15] 36.9 µM | [16] 19.8 µM | [17] 29.8 µM | [18] 18.9 µM | [19] 21.3 µM | [20] 22.5 µM

CC1OC(OC2C(OC(=O)[C@]34CCC(C)(C)C[C@H]3C3=CC[C@@H]5[C@@]6(C)CC[C@H](OC7OC(C(=O)O)C(O)C(O)C7O)C(C)(C)[C@@H]6CC[C@@]5(C)[C@]3(C)C[C@H]4O)OCC(O)C2O)C(O)C(O)C1OC1OCC(OC2OCC(O)C(O)C2O)C(O)C1O (stereo not given in full)
inactive: [1] 7.16 µM | [2] 10.7 µM | [3] 19.1 µM | [4] 3.9 µM | [5] 7.85 µM | [6] 16.4 µM | [7] 12.6 µM | [8] 1.48 µM | [9] 3.45 µM | [10] 4.66 µM | [11] 4.72 µM | [12] 11.3 µM | [13] 14.8 µM | [14] 15.9 µM | [15] 11.4 µM | [16] 1.89 µM | [17] 3.4 µM | [18] 13.2 µM | [19] 11.4 µM | [20] 11 µM

C=C[C@@]1(O)CCCC[C@@H]1CC(Sc1ccccc1)Sc1ccccc1
inactive: [1] 11.1 µM | [2] 27.5 µM | [3] 15.5 µM | [4] 15.9 µM | [5] 16.7 µM | [6] 13.4 µM | [7] 15.5 µM | [8] 24.4 µM | [9] 17.1 µM | [10] 15.6 µM | [11] 67.5 µM | [12] 17.7 µM | [13] 31.1 µM | [14] 17.9 µM | [15] 14.6 µM | [16] 18.3 µM | [17] 19.4 µM | [18] 16 µM | [19] 33 µM | [20] 8.59 µM

COc1ccc2nc3ccc(OC)cc3c([S+]([O-])Cc3ccc([N+](=O)[O-])cc3)c2c1 (stereo not given)
inactive: [1] 1.95 µM | [2] 2.61 µM | [3] 8.87 µM | [4] 25.8 µM | [5] 10.9 µM | [6] 23.3 µM | [7] 22.1 µM | [8] 17.3 µM | [9] 15.7 µM | [10] 1.69 µM | [11] 5.52 µM | [12] 2.58 µM | [13] 1.83 µM | [14] 3.39 µM | [15] 2.37 µM | [16] 2.92 µM | [17] 2.58 µM | [18] 16.1 µM | [19] 3.56 µM | [20] 15.2 µM

CC1CCCC(C(O)CC2CC(=O)NC(=O)C2)C1O (stereo not given)
inactive: [1] > 100 µM | [2] > 100 µM | [3] > 100 µM | [4] > 100 µM | [5] > 100 µM | [6] > 100 µM | [7] > 100 µM | [8] > 100 µM | [9] > 100 µM | [10] > 100 µM | [11] > 100 µM | [12] > 100 µM | [13] > 100 µM | [14] > 100 µM | [15] > 100 µM | [16] > 100 µM | [17] > 100 µM | [18] > 100 µM | [19] > 100 µM | [20] > 100 µM

COc1c2c(cc3c1C1(O)Cc4ccc5c(c4C[N+]1(C)CC3)OCO5)OCO2 (stereo not given)
inactive: [1] > 100 µM | [2] 85.3 µM | [3] > 100 µM | [4] > 100 µM | [5] > 100 µM | [6] 88.1 µM | [7] > 100 µM | [8] > 100 µM | [9] > 100 µM | [10] 35.1 µM | [11] > 100 µM | [12] > 100 µM | [13] 50.8 µM | [14] > 100 µM | [15] > 100 µM | [16] 58.5 µM | [17] 33.9 µM | [18] > 100 µM | [19] 37.3 µM | [20] > 100 µM

CC(C)(Cl)C(Br)CCC(C)(Cl)C(Br)CBr (stereo not given)
inactive: [1] 30.5 µM | [2] 18.1 µM | [3] 35.7 µM | [4] 29.8 µM | [5] 24.1 µM | [6] 20 µM | [7] 37.2 µM | [8] 22.5 µM | [9] 23.3 µM | [10] 18.8 µM | [11] 21.2 µM | [12] 29 µM | [13] 41.2 µM | [14] > 100 µM | [15] 22.4 µM | [16] 18.5 µM | [17] 19.5 µM | [18] 24.9 µM | [19] 22.5 µM | [20] 38.2 µM
